In patent US11390604B2 (Hoffmann-La Roche Inc., priority 2019, dated 2022) one finds IC90 data, which are given here for 21 compounds.

The subject of this test is Acinetobacter baumannii ATCC 17961. The experiment in a line: Antimicrobial susceptibility testing: 90% growth inhibitory concentration (IC90) determination. Particulars: read-out: ATCC 17961 IC90. Type of test: cell-based. On the procedure:
Antimicrobial Susceptibility Testing:
90% Growth Inhibitory Concentration (IC90) Determination
The in vitro antimicrobial activity of the compounds was determined according to the following procedure:
The assay used a 10-points Iso-Sensitest broth medium to measure quantitatively the in vitro activity of the compounds against Acinetobacter baumannii ATCC 17961.
Stock compounds in DMSO were serially twofold diluted (e.g. range from 50 to 0.097 μM final concentration) in 384 wells microtiter plates and inoculated with 49 μl the bacterial suspension in Iso-Sensitest medium to have a final cell concentration of ˜5×10^(5) CFU/ml in a final volume/well of 50 ul/well. Microtiter plates were incubated at 35±2° C.
Bacterial cell growth was determined with the measurement of optical density at X=600 nm each 20 minutes over a time course of 16 h. Growth inhibition was calculated during the logarithmic growth of the bacterial cells with determination of the concentration inhibiting 50% (IC50) and 90% (IC90) of the growth.
Table 1 provides the 90% growth inhibitory concentrations (IC90) in micromoles per liter of the compounds of present disclosure obtained against the strain Acinetobacter baumannii ATCC 17961.

Setting [1] is: ATCC17961, Acinetobacter baumannii ATCC 17961, Iso-Sensitest broth.

Structures can show the parent of a compound that is named as a salt. Where two headings read alike, the source gives them in different places.

In the case of `Cn1c(-c2cn(C3CC3(F)F)nc2C(F)(F)F)cnc1C(=O)Nc1ccc(C(=O)NC2CNCC2O)c(Cl)c1` (stereo not drawn) [Example 341, N-(3-chloro-4-((4-hydroxypyrrolidin-3-yl)carbamoyl)phenyl)-5-(1-(2,2-difluorocyclopropyl)-3-(trifluoromethyl)-1H-pyrazol-4-yl)-1-methyl-1H-imidazole-2-carboxamide formate], the concentration for an effect of 90% (IC90) under setting [1] came out at 430 nM. On the same count and under the same terms, to `Cn1c(-c2cn(CC3CCC3)nc2C(F)(F)F)cnc1C(=O)Nc1ccc(C(=O)N2CCN(C(=O)[C@H]3CC[C@@H](N)C3)CC2)c(Cl)c1` [Example 327, N-(4-(4-((1S,3R)-3-aminocyclopentane-1-carbonyl)piperazine-1-carbonyl)-3-chlorophenyl)-5-(1-(cyclobutylmethyl)-3-(trifluoromethyl)-1H-pyrazol-4-yl)-1-methyl-1H-imidazole-2-carboxamide hydrochloride] belongs 414 nM; to `CNC1CCN(C(=O)c2ccc(NC(=O)c3ncc(-c4cn(C5CC5)nc4C(F)(F)F)n3C)cc2Cl)CC1` [Example 366, N-(3-chloro-4-(4-(methylamino)piperidine-1-carbonyl)phenyl)-5-(1-cyclopropyl-3-(trifluoromethyl)-1H-pyrazol-4-yl)-1-methyl-1H-imidazole-2-carboxamide formate], 483 nM; to `C#CCn1cc(-c2cnc(C(=O)Nc3ccc(C(=O)N4CCN(C(=O)N5CCNCC5)CC4)c(Cl)c3)n2C)c(C(F)(F)F)n1` [Example 77, N-[3-chloro-4-[4-(piperazine-1-carbonyl)piperazine-1-carbonyl]phenyl]-1-methyl-5-[1-prop-2-ynyl-3-(trifluoromethyl)pyrazol-4-yl]imidazole-2-carboxamide], 257 nM. Take “N-[4-[4-[(3S)-3-carbonyl]piperazine-1-carbonyl]-3-chlorophenyl]-1-methyl-5-[1-prop-2-ynyl-3-(trifluoromethyl)pyrazol-4-yl]imidazole-2-carboxamide [Example 80]”: the IC90 (Acinetobacter baumannii ATCC 17961, Iso-Sensitest broth) was 212 nM. In the case of `Cn1c(-c2cn(C3CC3)nc2C(F)(F)F)cnc1C(=O)Nc1ccc(C(=O)NC[C@H]2CC[C@H](N)CC2)c(Cl)c1` [Example 289, rac-N-(4-((((1r,4r)-4-aminocyclohexyl)methyl)carba-moyl)-3-chlorophenyl)-5-(1-cyclopropyl-3-(trifluoromethyl)-1H-pyrazol-4-yl)-1-methyl-1H-imidazole-2-carboxamide hydrochloride], the 90% effect concentration (IC90) under setting [1] amounted to 354 nM.

On to `Cn1c(-c2cn(C3CC3)nc2C(F)(F)F)cnc1C(=O)Nc1ccc(C(=O)N2CCN(C(=O)[C@@H]3CCC[C@@H]3N)CC2)c(Cl)c1` [Example 243, N-(4-(4-((1R,2S)-2-aminocyclopentane-1-carbonyl)piperazine-1-carbonyl)-3-chlorophenyl)-5-(1-cyclopropyl-3-(trifluoromethyl)-1H-pyrazol-4-yl)-1-methyl-1H-imidazole-2-carboxamide hydrochloride], for which the IC90 under setting [1] stood at 286 nM. In the case of `Cn1c(-c2cn(CC#N)nc2C(F)(F)F)cnc1C(=O)Nc1ccc(C(=O)N[C@H]2C[C@@H](NC(=O)[C@@H]3CCNC3)C2)c(Cl)c1` [Example 253, N-[3-chloro-4-[[3-[[(3R)-pyrrolidine-3-carbonyl]amino]cyclobutyl]car-bamoyl]phenyl]-5-[1-(cyanomethyl)-3-(trifluoromethyl)pyrazol-4-yl]-1-methyl-imidazole-2-carboxamide; formic acid], the concentration for an effect of 90% (IC90) under setting [1] was determined as 309 nM. Same read-out and setting: to `C#CCn1cc(-c2cnc(C(=O)Nc3ccc(C(=O)N4CCN(C(=O)N[C@H]5CCC[C@H]5N)CC4)c(Cl)c3)n2C)c(C(F)(F)F)n1` [Example 82, N-[(1S,2R)-2-aminocyclopentyl]-4-[2-chloro-4-[[1-methyl-5-[1-prop-2-ynyl-3-(trifluoromethyl)pyrazol-4-yl]imidazole-2-carbonyl]amino]benzoyl]piperazine-1-carboxamide] belongs 160 nM. On the same count and under the same terms, to `C#CCn1cc(-c2cnc(C(=O)Nc3ccc(C(=O)N4CCN(C(=O)NCC5(O)CNC5)CC4)c(Cl)c3)n2C)c(C(F)(F)F)n1` [Example 52, 4-(2-chloro-4-(1-methyl-5-(1-(prop-2-yn-1-yl)-3-(trifluoromethyl)-1H-pyrazol-4-yl)-1H-imidazole-2-carboxamido)benzoyl)-N-((3-hydroxyazetidin-3-yl)methyl)piperazine-1-carboxamide hydrochloride] belongs 192 nM; to `CCn1cc(-c2cnc(C(=O)Nc3ccc(C(=O)NCCCCCCN)c(Br)c3)n2C)c(C(F)(F)F)n1` [Example 284, N-(4-((6-aminohexyl)carbamoyl)-3-bromophenyl)-5-(1-ethyl-3-(trifluoromethyl)-1H-pyrazol-4-yl)-1-methyl-1H-imidazole-2-carboxamide hydrochloride], 350 nM. Turning to `Cn1c(-c2cn(C3CS(=O)(=O)C3)nc2C(F)(F)F)cnc1C(=O)Nc1ccc(C(=O)N2CCN(C(=O)C3CCNCC3)CC2)c(Cl)c1` [Example 16, N-(3-chloro-4-(4-(piperidine-4-carbonyl)piperazine-1-carbonyl)phenyl)-5-(1-(1,1-dioxidothietan-3-yl)-3-(trifluoromethyl)-1H-pyrazol-4-yl)-1-methyl-1H-imidazole-2-carboxamide], under setting [1], the concentration for an effect of 90% (IC90) was determined as 1360 nM. Same read-out and setting: to `Cc1cc(NC(=O)c2ncc(-c3cn(CC#N)nc3C(F)(F)F)n2C)cc(F)c1C(=O)N1CCN(C(=O)[C@H](C)N)CC1` [Example 121, N-[4-[4-[(2S)-2-aminopropanoyl]piperazine-1-carbonyl]-3-fluoro-5-methylphenyl]-5-[1-(cyanomethyl)-3-(trifluoromethyl)pyrazol-4-yl]-1-methylimidazole-2-carboxamide] belongs 970 nM. Still for that read-out and setting: to `CCc1cc(NC(=O)c2ncc(-c3cn(CC#N)nc3C(F)(F)F)n2C)ccc1C(=O)N1CCN(C(=O)C2CCNCC2)CC1` [Example 128, 5-[1-(cyanomethyl)-3-(trifluoromethyl)pyrazol-4-yl]-N-[3-ethyl-4-[4-(piperidine-4-carbonyl)piperazine-1-carbonyl]phenyl]-1-methylimidazole-2-carboxamide;formic acid] belongs 1040 nM; to `Cc1cc(NC(=O)c2ncc(-c3cn(CC#N)nc3C(F)(F)F)n2C)cc(F)c1C(=O)N1CCN(C(=O)[C@H]2CC[C@@H](N)C2)CC1` [Example 119, N-[4-[4-[(1S,3R)-3-aminocyclopentanecarbonyl]piperazine-1-carbonyl]-3-fluoro-5-methylphenyl]-5-[1-(cyanomethyl)-3-(trifluoromethyl)pyrazol-4-yl]-1-methylimidazole-2-carboxamide], 769 nM; to `Cn1c(-c2cn(C3CC3)nc2C(F)(F)F)cnc1C(=O)Nc1ccc(C(=O)N2CCN(C(=O)[C@H]3[C@@H]4CNC[C@@H]43)CC2)c(Cl)c1` [Example 383, N-[3-chloro-4-[4-[rac-(1R,5S)-3-azabicyclo[3.1.0]hexane-6-carbonyl]piperazine-1-carbonyl]phenyl]-5-[1-cyclopropyl-3-(trifluoromethyl)pyrazol-4-yl]-1-methylimidazole-2-carboxamide;hydrochloride], 234 nM. With `Cn1c(-c2cn(C3CCC3)nc2C(F)(F)F)cnc1C(=O)Nc1ccc(C(=O)NC2CC(N)C2)c(Cl)c1` (stereo not drawn) [Example 125, N-[4-[(3-aminocyclobutyl)carbamoyl]-3-chlorophenyl]-5-[1-cyclobutyl-3-(trifluoromethyl)pyrazol-4-yl]-1-methylimidazole-2-carboxamide;hydrochloride], the concentration for an effect of 90% (IC90) under setting [1] came to 480 nM. The same measure, in the same setting: to `Cn1c(-c2cn(C3CC3)nc2C(F)(F)F)cnc1C(=O)Nc1ccc(C(=O)N2CC[C@@H](CN)C2)c(Cl)c1` [Example 217, (S)-N-(4-(3-(aminomethyl)pyrrolidine-1-carbonyl)-3-chlorophenyl)-5-(1-cyclopropyl-3-(trifluoromethyl)-1H-pyrazol-4-yl)-1-methyl-1H-imidazole-2-carboxamide hydrochloride] belongs 244 nM.

Turning to `Cn1c(-c2cn(CC#N)nc2C(F)(F)F)cnc1C(=O)Nc1ccc(C(=O)N2CCN(C(=O)NCC3(O)CNC3)CC2)c(Cl)c1` [Example 343, 4-[2-chloro-4-[[5-[1-(cyanomethyl)-3-(trifluoromethyl)pyrazol-4-yl]-1-methyl-imidazole-2-carbonyl]amino]benzoyl]-N-[(3-hydroxyazetidin-3-yl)methyl]piperazine-1-carboxamide; formic acid], the concentration for an effect of 90% (IC90) under setting [1] came out at 442 nM. `Cn1c(-c2cn(CCC(C)(C)O)nc2C(F)(F)F)cnc1C(=O)Nc1ccc(C(=O)N2CCN(C(=O)C3CCNCC3)CC2)c(Cl)c1` [Example 104, N-[3-chloro-4-[4-(piperidine-4-carbonyl)piperazine-1-carbonyl]phenyl]-5-[1-(3-hydroxy-3-methylbutyl)-3-(trifluoromethyl)pyrazol-4-yl]-1-methylimidazole-2-carboxamide;hydrochloride]: the IC90 under setting [1] was 1020 nM. Still for that read-out and setting: to `C#CCn1cc(-c2cnc(C(=O)Nc3ccc(C(=O)N4CCN(C(=O)N5CCC(N)CC5)CC4)c(Cl)c3)n2C)c(C(F)(F)F)n1` [Example 84, N-[4-[4-(4-aminopiperidine-1-carbonyl)piperazine-1-carbonyl]-3-chlorophenyl]-1-methyl-5-[1-prop-2-ynyl-3-(trifluoromethyl)pyrazol-4-yl]imidazole-2-carboxamide] belongs 191 nM.
